# In paper PMC7601695, “Transcriptome Analysis of Psacothea hilaris: De Novo Assembly and Antimicrobial Peptide Prediction” (Insects, 2020):
# Experiments:
# Type in all cases: cell-based
# mouse erythrocytes = experiment: Hemolytic assay; conditions: 12.5 μg/mL; 2.5% (v/v) mouse erythrocytes in PBS; 30 min, 37 °C; A540
# Procedure: This experiment was approved by the Institutional Animal Care and Use Committee (IACUC) of the National Institute of Agricultural Sciences (approval number: NAS-202014). The hemolytic activity of the peptides was determined by monitoring the release of hemoglobin from mouse erythrocytes at 540 nm. For the hemolytic assay, 20 μL of each peptide solution at a predetermined concentration was added to 180 μL of a 2.5% (v/v) suspension of mouse erythrocytes in phosphate-buffered saline (PBS). Melittin (Sigma), a hemolytic and α-helical peptide isolated from bee venom, were used as the positive control. This mixture was incubated for 30 min at 37 °C, and 600 μL of PBS was then added to each tube. After 3 min of centrifugation at 10,000× g, the supernatant was […], and the absorbance was measured at 540 nm. Evaluations were made from the results of at least three independent experiments, each carried out in triplicate.
# Figure 4 Cytotoxic effects of 13 selected peptides. Hemolytic activity of the peptides. Peptide concentration (x-axis) is plotted against the percentage of hemolysis (y-axis) of mouse red blood cells after incubation for 30 min. Melittin was used as the positive control. The percent hemolysis was calculated with the following equation: hemolysis (%) = (A540 of samp—A540 of peptide-free control)/(A540 of 100% control—A540 of peptide-free control) × 100. […]
# [1] = system: Escherichia coli (KACC 13821, ATCC 11775); experiment: Radial diffusion assay, E. coli; conditions: for Diameter of clearing zone, E. coli: peptide 200 μg/mL, 5 μL per 3-mm well, 3 h diffusion then 12 h at 37 °C, mean of tests repeated three times; for Antimicrobial activity compared with melittin, E. coli: in words
# Procedure: (§1) The bacterial strains Escherichia coli (KACC 13821, ATCC 11775) and Staphylococcus aureus (KACC 10768, ATCC 25923), and the yeast strain Candida albicans (KCTC 7121, ATCC 14053) were purchased from the Korean Agricultural Culture Collection (KACC) and Korean Collection for Type Cultures (KCTC). Both bacteria and yeast were grown overnight in tryptic soy broth (TSB; Difco, Thermo Fisher Scientific, Waltham, MA, USA) at 37 °C, 200 rpm to the stationary phase. Bacteria were re-inoculated in fresh TSB medium and cultivated for 3 h to the log phase. The strains were stored with 15% glycerol at −70 °C.
# (§2) The radial diffusion assay was performed to test the antimicrobial activities of peptides, as described previously with slight modifications. In brief, bacteria and yeast strains were grown to the mid-logarithmic phase in TSB at 37 °C and then washed twice with 10 mM sodium phosphate buffer (pH 7.4). A total of 4 × 10^6 colony forming unit (CFU) was added to 10 mL of an underlay agarose gel (9 mM sodium phosphate, 1 mM sodium citrate, pH 7.4, 1% (w/v) Type I (low electroendosmosis) agarose (Sigma, St. Louis, MO, USA), and 3% TSB (Difco, USA)). The underlay gel was poured into a 100-mm INTEGRIDTM Petri dish. After agarose solidification, 3-mm-diameter wells were punched and 5 μL of each peptide solution was added to each well. Buffer alone was used as a negative control. Plates were incubated at 37 °C for 3 h to allow for diffusion of the peptides. The underlay gel was then covered with 10 mL of nutrient-rich agar overlay (6% TSB and 1% agarose). The antimicrobial activity of a peptide was measured as the diameter of the cleared zone around each well after 12 h of incubation at 37 °C. This experiment was repeated at least 3 times.
# [2] = system: Candida albicans (KCTC 7121, ATCC 14053); experiment: Radial diffusion assay, C. albicans; conditions: for Diameter of clearing zone, C. albicans: peptide 200 μg/mL, 5 μL per 3-mm well, 3 h diffusion then 12 h at 37 °C, mean of tests repeated three times; for Antimicrobial activity compared with melittin, C. albicans: in words
# Procedure: as §1, §2
# [3] = system: Staphylococcus aureus (KACC 10768, ATCC 25923); experiment: Radial diffusion assay, S. aureus; conditions: peptide 200 μg/mL, 5 μL per 3-mm well, 3 h diffusion then 12 h at 37 °C, mean of tests repeated three times
# Procedure: as §1, §2
Compound,Hemolysis of mouse red blood cells (mouse erythrocytes),"Diameter of clearing zone, E. coli [1]","Diameter of clearing zone, C. albicans [2]","Diameter of clearing zone, S. aureus [3]","Antimicrobial activity compared with melittin, E. coli [1]","Antimicrobial activity compared with melittin, C. albicans [2]"
"CC[C@H](C)[C@H](NC(=O)CN)C(=O)NCC(=O)N[C@@H](C)C(=O)N[C@H](C(=O)N[C@@H](CC(C)C)C(=O)N[C@@H](CCCCN)C(=O)N[C@H](C(=O)N[C@@H](CC(C)C)C(=O)N[C@H](C(=O)N[C@H](C(=O)NCC(=O)N[C@@H](CC(C)C)C(=O)N1CCC[C@H]1C(=O)N[C@@H](C)C(=O)N[C@@H](CC(C)C)C(=O)N[C@H](C(=O)N[C@@H](CO)C(=O)N[C@@H](Cc1c[nH]c2ccccc12)C(=O)N[C@H](C(=O)N[C@@H](CCCCN)C(=O)N[C@@H](CCCNC(=N)N)C(=O)N[C@@H](CCCCN)C(=O)N[C@@H](CCCNC(=N)N)C(=O)N[C@@H](CCC(N)=O)C(=O)N[C@@H](CCC(N)=O)C(N)=O)[C@@H](C)CC)[C@@H](C)CC)[C@@H](C)O)[C@@H](C)O)C(C)C)C(C)C [Melittin, reference compound]",92%,75 Units (1 mm = 10 Units),65 Units (1 mm = 10 Units),100 Units (1 mm = 10 Units),,
"KIGTFIKKLSYTS * [Ph 26, synthetic peptide predicted as novel AMP from the P. hilaris transcriptome]",,85 Units (1 mm = 10 Units),25 Units (1 mm = 10 Units),75 Units (1 mm = 10 Units),stronger antimicrobial activity than melittin,
"KLPIVNVKLVNRIK * [Ph 2, synthetic peptide predicted as novel AMP from the P. hilaris transcriptome]",,80 Units (1 mm = 10 Units),80 Units (1 mm = 10 Units),90 Units (1 mm = 10 Units),stronger antimicrobial activity than melittin,stronger antimicrobial activity than melittin
"KLQVVPAIHLVWLQK * [Ph 4, synthetic peptide predicted as novel AMP from the P. hilaris transcriptome]",,75 Units (1 mm = 10 Units),30 Units (1 mm = 10 Units),80 Units (1 mm = 10 Units),,
"KLSNAVFKSCRKI * [Ph 24, synthetic peptide predicted as novel AMP from the P. hilaris transcriptome]",,49 Units (1 mm = 10 Units),47 Units (1 mm = 10 Units),65 Units (1 mm = 10 Units),,
"KMFTKCIRYRKM * [Ph 20, synthetic peptide predicted as novel AMP from the P. hilaris transcriptome]",,65 Units (1 mm = 10 Units),68 Units (1 mm = 10 Units),85 Units (1 mm = 10 Units),,
"KRGYQVPRIAFII * [Ph 3, synthetic peptide predicted as novel AMP from the P. hilaris transcriptome]",,72 Units (1 mm = 10 Units),80 Units (1 mm = 10 Units),85 Units (1 mm = 10 Units),,stronger antimicrobial activity than melittin
"KRIFYLYIRGQ * [Ph 22, synthetic peptide predicted as novel AMP from the P. hilaris transcriptome]",,85 Units (1 mm = 10 Units),92 Units (1 mm = 10 Units),95 Units (1 mm = 10 Units),stronger antimicrobial activity than melittin,stronger antimicrobial activity than melittin
"RAIKWPGNGLLFLKY * [Ph 1, synthetic peptide predicted as novel AMP from the P. hilaris transcriptome]",,85 Units (1 mm = 10 Units),65 Units (1 mm = 10 Units),86 Units (1 mm = 10 Units),stronger antimicrobial activity than melittin,
"RCLKTCFLSFIRY * [Ph 8, synthetic peptide predicted as novel AMP from the P. hilaris transcriptome]",,71 Units (1 mm = 10 Units),45 Units (1 mm = 10 Units),83 Units (1 mm = 10 Units),,
"RISCVAMRLILK * [Ph 10, synthetic peptide predicted as novel AMP from the P. hilaris transcriptome]",,67 Units (1 mm = 10 Units),48 Units (1 mm = 10 Units),72 Units (1 mm = 10 Units),,
"RKSWRHWKC * [Ph 16, synthetic peptide predicted as novel AMP from the P. hilaris transcriptome]",,50 Units (1 mm = 10 Units),65 Units (1 mm = 10 Units),87 Units (1 mm = 10 Units),,
"RLLLLCYACGKS * [Ph 12, synthetic peptide predicted as novel AMP from the P. hilaris transcriptome]",,70 Units (1 mm = 10 Units),40 Units (1 mm = 10 Units),75 Units (1 mm = 10 Units),,
"RRRCRCCRY * [Ph 14, synthetic peptide predicted as novel AMP from the P. hilaris transcriptome]",,65 Units (1 mm = 10 Units),105 Units (1 mm = 10 Units),70 Units (1 mm = 10 Units),,stronger antimicrobial activity than melittin
